{"source": "patent US20040023952A1", "about": "(priority 2002, published 2004)", "test_system": "V1 cortical cells", "format": "in vivo, rhesus monkeys (Macaca mulatta)", "details": "for signal-to-noise ratio of cortical cells (response to appropriate stimuli divided by spontaneous discharge rate): FIG. 7; for peak response (maximum visually evoked response) of V1 cortical cells / spontaneous activity of V1 cortical cells: intracortical delivery through microelectrode; for peak response (maximum visually evoked response) of V1 cortical cells: FIG. 5; for spontaneous activity of V1 cortical cells: FIG. 6; for direction selectivity of a representative cortical cell / orientation selectivity of a representative cortical cell / peak response of a representative cortical cell / spontaneous activity of a representative cortical cell: single cell of old monkey, FIG. 10, three minutes after GABA or muscimol application, within five minutes of bicuculline", "text": "Extracellular single-neuron recording techniques were used to examine the stimulus selectivities of VI cells in very old rhesus monkeys showing normal optics and retinogeniculate projections. A total of 187 neurons were studied in 4 young rhesus monkeys (Maraca mulatta), and 254 neurons in 4 old rhesus monkeys. Subjects for physiological experiments were abbreviated as OM1-4 (for old monkey 1-4) and YM1-4 (for young monkey 1-4). Retinal data were obtained from one additional young macaque (YM5, Macaca fascicularis). Multiple ophthalmological exams were conducted to ensure optical and retinal health of all subjects prior to testing.\nSubjects for this study were four young adult (7-9 year old) and four very old (28-30 year old) female rhesus monkeys (Macaca mullata). […] Thus, the 28-30 year old monkeys were considered old, whereas the 7-9 year old monkeys were at an age considered sexually mature. Retinal control data for FIG. 1 are provided from one additional young female Macaca facsicularis, which was used in previous studies. Onset latency data from YM4 are published. Monkeys were examined ophthalmoscopically, and no apparent optical or retinal problems were detected that would impair visual function. Retinal blood vessels, lens clarity and the maculae all appeared normal. All cells studied had receptive fields between 2 and 5 degrees from the fovea. Monkeys were prepared for electrophysiological recording using standard techniques consistent with Society for Neuroscience and National Institute of Health guidelines.\nSubjects were sedated with Ketamine HC1 (Ketalar, Parke-Davis, Morris Plains, N.J.) and then anesthetized with halothane (5%; Halocarton Laboratories, River Edge, N.J.) in a 70:30 mixture of […]. Intravenous and tracheal cannulae were inserted, the animals were placed in a stereotaxic apparatus, and pressure points and incisions were infiltrated with a long-acting anesthetic (2% lidocaine HCI, Copley Pharmaccuticak, Canton, Mass.). A mixture of D-tubocurarine (0.4 mg per kg per hour) and gallamine triethiodide (7 mg per kg per hour) was infused intravenously to induce and maintain paralysis. Animals were ventilated, and anesthesia was maintained with a mixture of nitrous oxide (75%), oxygen (25%) and halothane (0.25-1.0%) as needed.\nA small burr hole was made above the striate cortex (V1), and filled with a 4% solution of agar in saline and sealed with wax. The eyes were protected from desiccation with contact lenses; spectacle lenses and artificial pupils were used when needed to focus the eyes on a tangent screen positioned 228 cm from the retina. The locations of the optic discs and foveae were determined repeatedly during the course of each recording session. No visible deterioration in optics occurred during the experimental period (2-5 days).\nExtracellular action potentials of isolated cortical cells were recorded with microelectrodes having impedances of 3-5 MΩ. The electrode was advanced using a hydraulic microdrive (David Kopf instruments, Tojunga, Calif.) to precisely position it. The position of the electrode was confirmed by determining the receptive filed positions of the cortical cells at the recording site. A1 V1 cells studied had receptive fields between about 3 and 7 degrees from the fovea.\nAfter placing the microelectrode as in Example 1, visual stimuli were measured using a Tektronix (Beaverton, Oreg.) 608 display driven by a Picasso (Inning Cambridge, Mass.) image synthesizer and a texture/motion generator (Innisfree). The Picasso and texture/motion generator were computer controlled in conjunction with a hardware and software package from Cambridge Electronics Design (Cambridge, England). The center of the display screen was 171 cm from the animal's retina.\nThe physiological orientation biases and direction biases of cortical cell were studied quantitatively. The orientation of each drifting stimulus presented was orthogonal to its direction of motion. […]", "data": [{"smiles": "NCc1cc(=O)[nH]o1", "note": "[muscimol]", "values": [{"measurement": "signal-to-noise ratio of cortical cells (response to appropriate stimuli divided by spontaneous discharge rate)", "setting": "old monkeys", "result": "increased signal-to-noise ratios dramatically"}, {"measurement": "time until drug effects wear off after administration ceases", "setting": "old monkeys, intracortical delivery", "result": "Five minutes after the discontinuation"}, {"measurement": "peak response (maximum visually evoked response) of V1 cortical cells", "setting": "old monkeys", "result": "reduce the peak responses and spontaneous activity of cortical cells to the normal levels seen in young monkeys"}, {"measurement": "spontaneous activity of V1 cortical cells", "setting": "old monkeys", "result": "reduce the peak responses and spontaneous activity of cortical cells to the normal levels seen in young monkeys"}, {"measurement": "direction selectivity of a representative cortical cell", "result": "very strong direction selectivity"}, {"measurement": "orientation selectivity of a representative cortical cell", "result": "moderate orientation selectivity"}, {"measurement": "peak response of a representative cortical cell", "result": "decreased peak response"}, {"measurement": "spontaneous activity of a representative cortical cell", "result": "decreased spontaneous activity"}]}, {"smiles": "NCCCC(=O)O", "note": "[GABA, Gamma-aminobutyric acid]", "values": [{"measurement": "signal-to-noise ratio of cortical cells (response to appropriate stimuli divided by spontaneous discharge rate)", "setting": "old monkeys", "result": "increased signal-to-noise ratios dramatically"}, {"measurement": "number/proportion of orientation and direction selective cells in area V1", "setting": "old monkeys, FIGS. 8 and 9", "result": "very close to what is found in normal young monkeys"}, {"measurement": "peak response (maximum visually evoked response) of V1 cortical cells", "setting": "old monkeys", "result": "reduce the peak responses and spontaneous activity of cortical cells to the normal levels seen in young monkeys"}, {"measurement": "spontaneous activity of V1 cortical cells", "setting": "old monkeys", "result": "reduce the peak responses and spontaneous activity of cortical cells to the normal levels seen in young monkeys"}, {"measurement": "time until effects are seen after drug administration", "setting": "old monkeys, intracortical delivery, current 15-50 n amp for 1-3 minutes", "result": "Three to five minutes"}, {"measurement": "direction selectivity of a representative cortical cell", "result": "moderate direction selectivity"}, {"measurement": "orientation selectivity of a representative cortical cell", "result": "strong orientation"}, {"measurement": "peak response of a representative cortical cell", "result": "peak response decreased"}, {"measurement": "spontaneous activity of a representative cortical cell", "result": "decreased as did its spontaneous activity"}]}]}
